Patent EP0434364A2, “Benzodiazepine analogs for treating panic syndrome and for directly inducing analgesia” (MERCK & CO. INC., priority 1989, dated 1991)
Read-outs that look alike come from different tables or passages of the source. Ends that are not written are not given here.

Assays:
Gastrin Receptor = biological target: T1, Gastrin Receptor (Cavia porcellus, UniProt H0VZC5); assay: Gastrin Receptor Binding in Guinea Pig Gastric Glands (125I-gastrin)
T1 construct: The washed guinea pig gastric glands prepared as above were resuspended; from tissue; host or cells: guinea pig gastric mucosal glands (intact glands after collagenase)
T1 sequence (H0VZC5 1-426): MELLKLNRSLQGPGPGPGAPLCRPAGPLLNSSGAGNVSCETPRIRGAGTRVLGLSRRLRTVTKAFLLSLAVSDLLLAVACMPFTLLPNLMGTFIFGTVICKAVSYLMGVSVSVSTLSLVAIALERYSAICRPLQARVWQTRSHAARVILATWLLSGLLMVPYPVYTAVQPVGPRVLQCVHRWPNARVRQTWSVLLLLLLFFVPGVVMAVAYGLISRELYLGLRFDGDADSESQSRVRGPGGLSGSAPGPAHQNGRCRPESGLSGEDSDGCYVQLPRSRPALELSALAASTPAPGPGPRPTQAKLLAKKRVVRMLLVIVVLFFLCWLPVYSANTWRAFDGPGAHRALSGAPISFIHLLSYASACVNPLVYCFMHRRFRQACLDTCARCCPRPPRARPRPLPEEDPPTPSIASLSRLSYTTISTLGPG

CCK Receptor (Pancreas) = biological target: T2, CCK Receptor (Pancreas) (Rattus norvegicus, UniProt P30551); assay: CCK Receptor Binding (Pancreas), inhibition of 125I-CCK-33 binding; design: species or system Sprague-Dawley rats
T2 construct: The whole pancreas was dissected free of fat tissue and was homogenized; from tissue; host or cells: rat whole pancreas membranes
T2 sequence (P30551 1-444): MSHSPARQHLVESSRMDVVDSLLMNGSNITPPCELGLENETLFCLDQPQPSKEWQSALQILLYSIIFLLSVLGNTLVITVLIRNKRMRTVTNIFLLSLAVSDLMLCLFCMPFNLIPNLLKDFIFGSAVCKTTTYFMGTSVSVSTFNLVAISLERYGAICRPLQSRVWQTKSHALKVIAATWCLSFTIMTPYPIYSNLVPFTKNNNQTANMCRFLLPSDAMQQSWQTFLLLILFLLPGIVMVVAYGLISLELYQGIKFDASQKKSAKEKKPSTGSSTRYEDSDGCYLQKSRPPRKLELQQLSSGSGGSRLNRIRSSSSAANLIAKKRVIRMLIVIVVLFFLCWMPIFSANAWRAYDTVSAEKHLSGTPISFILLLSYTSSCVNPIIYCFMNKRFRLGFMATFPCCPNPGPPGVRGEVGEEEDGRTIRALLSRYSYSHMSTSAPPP
Experimental: CCK-33 was radiolabeled with ¹²⁵I-Bolton Hunter reagent (2000 Ci/mmole) as described by Sankara et al. (J. Biol. Chem. 254: 9349-9351, 1979). Receptor binding was performed according to Innis and Snyder (Proc. Natl. Acad. Sci. 77, 6917-6921, 1980) with the minor modification of adding the additional protease inhibitors, phenylmethane sulfonyl fluoride and o-phenanthroline.
Male Sprague-Dawley rats (200-350g) were sacrificed by decapitation. The whole pancreas was dissected free of fat tissue and was homogenized in 20 volumes of ice-cold 50 mM Tris HCI (pH 7.7 at 25°C) with a Brinkmann Polytron PT 10. The homogenates were centrifuged at 48,000 g for 10 min. Pellets were resuspended in Tris Buffer, centrifuged as above and resuspended in 200 volumes of binding assay buffer (50 mM Tris HCI, pH 7.7 at 25°C, 5 mM dithiothrietol, 0.1 mM bacitracin, 1.2 mM phenylmethane sulfonyl fluoride and 0.5 mM o-phenanthroline). […] All assays were run in duplicate or triplicate. The reaction mixtures were incubated at 37°C for 30 minutes and centrifuged in a Beckman Microfuge (4 minutes) immediately after adding 1 ml of ice-cold incubation buffer. The supernatant was aspirated and discarded, pellets were counted with a Beckman gamma 5000. For Scatchard analysis (Ann. N.Y. Acad. Sci. 51: 660, 1949), ¹²⁵I-CCK-33 was progressively diluted with increasing concentrations of CCK-33.

DBA2 mice = assay: Black/white exploration test (animal model of anxiety); format: in vivo; conditions: for active dose range / difference in time spent in the black and white side / preference for rearing in the black side: mice; for active dose range: black/white exploration test
Excerpt: The black/white exploration test [Crawley et al. Pharmacology, Biochemistry and Behav. 13, 167 (1980)] is a simple animal model of anxiety. Rodents placed in a two compartment box which consists of a brightly lit, white painted side and a dimly lit, black painted side, display a marked preference for the black side of the apparatus. This behavior is caused by the aversive properties of the brightly lit, white painted section. Classical anxiolytic drugs [such as diazepam, see Crawley, supra] and novel anxiolytic drugs [such as 5HT₃ antagonists, see Jones et al. Br. J. Pharm. 93, 985 (1988)] decrease the preference of the animal for the black dimly lit side of the apparatus.
A. Naive male DBA2 mice (25-30) were housed on a reversed light/dark cycle and tested during the dark phase of the cycle under dim red light. The apparatus consisted of an open topped box (40cm long X 27 cm wide X 27 cm high) divided into a small area (2/5) and a large area (3/5) by a partition that extended 20 cm above the walls. There was a 7.5 X 7.5 cm opening in the partition at floor level. The small compartment was painted black and the large compartment white. The floor of each compartment was marked into 9 cm squares. The white compartment was illuminated by a 100 W tungsten bulb 17 cm above the box and the black compartment by a similarly placed 60 W red bulb.
Animals that had been injected with drug or vehicle were placed individually into the centre of the white area and their behavior observed during a 5 minute period by remote video recording. Four behavioral parameters were recorded every minute: the number of exploratory rears in the white and black sections, the number of line crossings in the black and white sections, the number of transitions between the two sections and the time spent in the black and white sections. Animals were tested in treatment groups of 8-10 and vehicle controls were run on each test day. Data were analysed by ANOVA and Dunnetts test.

Sprague Dawley rats = assay: Exploratory/locomotor activity in automated activity cages (novel environment); format: in vivo
Experimental: B. The effects of CCK-8 and compound A on the exploratory behavior of the rat were examined in automated activity cages and by direct observation. It is known that exogenous CCK-8 decreases exploratory behavior in rats in a novel environment by accelerating the process of habituation. [See Crawley, Pharm. Biochem & Behav. 20, 23-27 (1984).]
Expt 1. Male Sprague Dawley rats were injected ([…].) with CCK-8 and immediately placed in automated activity cages. Activity was measured for 30 minutes past injection.
Expt 2. Male SD rats were injected (s.c.) with the CCK antagonist compound A (0.0001-10mg/kg) and immediately placed in the automated activity cages. […] As the anxiolytic drug chlordiazepoxide also increases spontaneous locomotor activity in rats in a novel environment [(McElroy et al. Psychopharm. 85: 224-226 (1985)] these findings are consistent with an anxiolytic action of Compound A useful in the treatment of panic disorder.

rats = assay: Exploration in a novel environment by direct observation (perspex cage); format: in vivo; conditions: 0.1 mg/kg, 15 minute period 15 minutes after treatment
Experimental: Expt 3. In order to assess further the effect of Compound A on exploration in a novel environment, the motoric hehaviors of rats placed in a perspex cage was recorded by direct observation for a 15 minute period 15 minutes after treatment with Compound A.
Experimenters (unaware of the treatments the animals had received) recorded the frequency and duration of rearing, sniffing, grooming and cage crossing using a keypad interfaced to a BBC microcomputer.

## CN1C(=O)C(NC(=O)Nc2ccc3c(c2)CCC3)N=C(c2ccccc2)c2ccccc21 (racemic) [Example 26, (RS)-N-(2,3-dihydro-1-methyl-2-oxo-5-phenyl-1H-1,4-benzodiazepin-3-yl)-N′-(5-indanyl)urea]
Gastrin Receptor; guinea pig gastric glands, 125I-gastrin, 25°C 30 minutes, read-out: IC50(µM) 125I-Gastrin Gastric Glands
  IC50: 0.0019 µM
CCK Receptor (Pancreas)
  IC50: 0.075 µM

## CN1C(=O)[C@H](NC(=O)Nc2cc3c(cn2)[nH]c2ccccc23)N=C(c2ccccc2)c2ccccc21 [Example 22]
Gastrin Receptor
  IC50: 1.3 µM
CCK Receptor (Pancreas)
  IC50: 0.0044 µM

## CN1C(=O)C(NC(=O)c2cc3ccccc3[nH]2)N=C(c2ccccn2)c2ccccc21 (racemic) [Example 24, (RS)-N-(2,3-Dihydro-1-methyl-2-oxo-5-(2-pyridyl)-1H-1,4-benzodiazepin-3-yl)-1H-indole-2-carboxamide]
Gastrin Receptor
  IC50: 0.16 µM
CCK Receptor (Pancreas)
  IC50: 0.00037 µM

## Cc1cccc(NC(=O)N[C@@H]2N=C(c3ccccc3)c3ccccc3N(C)C2=O)c1 [Example 5, (R)-N-(2,3-Dihydro-1-methyl-2-oxo-5-phenyl-1H-1,4-benzodiazepin-3-yl)-N′-(3-methylphenyl)-urea]
DBA2 mice
  active dose range: 0.005 to 0.05 µg/kg
DBA2 mice; dose of 0.005 ug/kg
  difference in time spent in the black and white side: decreased
DBA2 mice; dose of 0.05 ug/kg
  preference for rearing in the black side: abolished
CCK Receptor (Pancreas); rat pancreas membranes, 125I-CCK-33, 37°C 30 minutes, read-out: IC50(µM) 125I-CCK Pancreas
  IC50: 0.28 µM

## CN1C(=O)[C@@H](NC(=O)c2cc3cc(O)ccc3[nH]2)N=C(c2ccccc2)c2ccccc21 [Example 27, 1,3-Dihydro-3-(5-hydroxyindole-2-carbonylamino)-1-methyl-5-phenyl-2H-1,4-benzodiapin-2-one]
CCK Receptor (Pancreas)
  IC50: 0.0033 µM

## CN1C(=O)[C@@H](NC(=O)c2cc3ccccc3[nH]2)N=C(c2ccccc2)c2ccccc21 [Example 16, 3(S)-(-)-1,3-Dihydro-3-(2-indolecarbonylamino)-1-methyl-5-phenyl-2H-1,4-benzodiazepin-2-one]
DBA2 mice; mice, 0.5, 5.0 and 500 ug/kg
  preference for locomotion (line crossings) in the black side: abolished
DBA2 mice; 5.0 and 500 ug/kg
  difference in time spent in the black and white side: abolished
DBA2 mice
  active dose range: 0.05 to 5.0 µg/kg
DBA2 mice; doses of 0.05, 0.5, 5.0 and 500 ug/kg
  preference for rearing in the black side: significantly decreased
Sprague Dawley rats; s.c., 0.0001-10mg/kg, F(6,124) = 2.54, p<0.05
  habituation and period of exploratory activity: delayed habituation and prolonged the period of exploratory activity
Sprague Dawley rats; s.c., 0.1 mg/kg, at 25 minutes, p<0.01
  levels of activity: significantly above controls
Sprague Dawley rats; s.c., doses higher and lower than 0.1 mg/kg, at 25 minutes, bell-shaped dose response curve
  activity, higher and lower doses: no significant effect
rats; P<0.01
  Sniffing: significantly increased
  rearing: significantly increased
rats; P<0.05
  cage crossing: significantly increased

## Cc1cccc(NC(=O)N[C@H]2N=C(c3ccccc3)c3ccccc3N(C)C2=O)c1 [Example 11, (S)-N-(2,3-Dihydro-1-methyl-2-oxo-5-phenyl-1H-1,4-benzodiazepin-3-yl)-N′-(3-methylphonyl)-urea]
Gastrin Receptor
  IC50: 0.092 µM
CCK Receptor (Pancreas)
  IC50: 0.0041 µM

## CN1C(=O)C(NC(=O)c2cc3ccccc3[nH]2)N=C(c2ccncc2)c2ccccc21 (racemic) [Example 17, 1,3-Dihydro-3(RS)-(2-indolecarbonylamino)-1-methyl-5-(4-pyridyl)-2H-1,4-benzodiazepin-2-one]
Gastrin Receptor
  IC50: 0.66 µM
CCK Receptor (Pancreas)
  IC50: 0.0068 µM

## CCK-8 (DYMGWMDF; ends and bridges not checked; UniProt P06307 96-103, looked up) [reference compound]
Sprague Dawley rats; i.p., 0.5-16µg/kg, 30 minutes post injection, F(6,87) = 3.21 (p<0.01)
  locomotor activity: dose-dependently decreased

## Cc1cccc(NC(=O)NC2N=C(c3ccccn3)c3ccccc3N(CC(C)C)C2=O)c1 (racemic) [Example 25, (RS)-N-(2,3-Dihydro-1-(2-methylpropyl)-2-oxo-5-(2-pyridyl)-1H-1,4-benzodiazepin-3-yl)-N′-(3-methyl-phenyl)-urea]
Gastrin Receptor
  IC50: 0.00067 µM
CCK Receptor (Pancreas)
  IC50: 0.49 µM
